From patent US9499535B2, “Kinase inhibitors” (ORIGENIS GMBH, priority 2011, dated 2016)
pIC50, pKi: −log10 of the molar value. Where two headings read alike, the source gives them in different places.

Columns and labels:
SYK kinase = biological target: T1, SYK kinase (Homo sapiens, UniProt P43405); assay: SYK assay (OMNIA Kinase Assay, Invitrogen); type: biochemical; conditions: apparent Ki calculated from the IC50 using the Cheng-Prusoff equation; 1 mM ATP, 10 μM Peptide Substrate; read-out: SYK Activities: Ki
T1 construct: purchased Invitrogen, Carlsbad
Outline: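 Continuous SOX-fluorescence (Omnia) readout of Tyr 7 peptide (10 μM) phosphorylation with 1 mM ATP and 0.2 mM DTT at 30° C, started by SYK addition. Fluorescence (λex 360/λem 485 nm) was read every 30 s for 30 min. IC50 from velocity vs concentration; apparent Ki via Cheng-Prusoff.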

LRRK2 = LRRK2 (Homo sapiens, UniProt Q5S007); assay: LRRK2 assay (LanthaScreen Eu Kinase Binding Assay)
Chain of LRRK2 (Q5S007 970-2527 limits assumed): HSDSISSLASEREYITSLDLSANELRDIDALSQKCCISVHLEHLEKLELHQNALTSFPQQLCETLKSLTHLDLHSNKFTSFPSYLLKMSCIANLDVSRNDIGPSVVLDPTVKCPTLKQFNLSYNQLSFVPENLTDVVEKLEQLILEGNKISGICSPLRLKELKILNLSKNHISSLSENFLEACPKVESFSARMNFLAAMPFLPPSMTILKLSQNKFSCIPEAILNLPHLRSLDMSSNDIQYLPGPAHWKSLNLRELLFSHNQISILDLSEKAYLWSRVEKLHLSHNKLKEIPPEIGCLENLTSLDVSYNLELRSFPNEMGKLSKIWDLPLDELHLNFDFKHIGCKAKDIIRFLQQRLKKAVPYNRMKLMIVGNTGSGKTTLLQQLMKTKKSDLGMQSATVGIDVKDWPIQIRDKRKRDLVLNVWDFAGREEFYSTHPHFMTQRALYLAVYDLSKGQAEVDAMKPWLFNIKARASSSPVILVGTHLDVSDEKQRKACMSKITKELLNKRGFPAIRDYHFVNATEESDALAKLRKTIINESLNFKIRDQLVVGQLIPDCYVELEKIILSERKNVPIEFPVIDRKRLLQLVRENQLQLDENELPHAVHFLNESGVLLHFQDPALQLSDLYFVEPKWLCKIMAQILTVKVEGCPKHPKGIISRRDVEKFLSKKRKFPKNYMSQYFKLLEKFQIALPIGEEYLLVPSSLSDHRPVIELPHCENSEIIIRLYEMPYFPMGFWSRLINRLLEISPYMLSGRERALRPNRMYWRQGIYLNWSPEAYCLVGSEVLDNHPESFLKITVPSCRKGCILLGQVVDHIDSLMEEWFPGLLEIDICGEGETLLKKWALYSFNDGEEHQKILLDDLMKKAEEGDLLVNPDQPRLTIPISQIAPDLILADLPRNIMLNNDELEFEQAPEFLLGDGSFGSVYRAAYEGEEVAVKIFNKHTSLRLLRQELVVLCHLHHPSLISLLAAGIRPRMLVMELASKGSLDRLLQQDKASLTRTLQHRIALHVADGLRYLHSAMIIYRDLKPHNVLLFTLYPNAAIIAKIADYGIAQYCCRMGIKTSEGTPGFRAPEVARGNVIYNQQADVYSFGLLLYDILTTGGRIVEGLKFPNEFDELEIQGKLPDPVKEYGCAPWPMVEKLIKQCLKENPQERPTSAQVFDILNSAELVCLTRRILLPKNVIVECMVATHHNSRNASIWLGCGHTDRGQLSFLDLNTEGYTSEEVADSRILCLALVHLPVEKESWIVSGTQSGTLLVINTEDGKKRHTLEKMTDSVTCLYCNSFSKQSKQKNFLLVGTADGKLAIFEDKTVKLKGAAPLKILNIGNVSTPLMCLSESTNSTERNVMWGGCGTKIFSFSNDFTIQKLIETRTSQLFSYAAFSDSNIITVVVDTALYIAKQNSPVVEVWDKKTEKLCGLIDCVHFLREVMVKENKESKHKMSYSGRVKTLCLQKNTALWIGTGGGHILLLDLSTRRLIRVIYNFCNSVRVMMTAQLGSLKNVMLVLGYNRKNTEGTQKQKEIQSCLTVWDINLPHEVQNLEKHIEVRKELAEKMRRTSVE
Outline: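 Kinase binding was detected by europium anti-tag antibody FRET with a competing tracer, so inhibitor binding lowers the FRET signal. IC50 came from a variable-slope sigmoidal fit of emission ratio against inhibitor concentration.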

MYLK = MYLK (Homo sapiens, UniProt Q15746); assay: MYLK assay (LanthaScreen Eu Kinase Binding Assay)
Chain of MYLK (Q15746 whole entry): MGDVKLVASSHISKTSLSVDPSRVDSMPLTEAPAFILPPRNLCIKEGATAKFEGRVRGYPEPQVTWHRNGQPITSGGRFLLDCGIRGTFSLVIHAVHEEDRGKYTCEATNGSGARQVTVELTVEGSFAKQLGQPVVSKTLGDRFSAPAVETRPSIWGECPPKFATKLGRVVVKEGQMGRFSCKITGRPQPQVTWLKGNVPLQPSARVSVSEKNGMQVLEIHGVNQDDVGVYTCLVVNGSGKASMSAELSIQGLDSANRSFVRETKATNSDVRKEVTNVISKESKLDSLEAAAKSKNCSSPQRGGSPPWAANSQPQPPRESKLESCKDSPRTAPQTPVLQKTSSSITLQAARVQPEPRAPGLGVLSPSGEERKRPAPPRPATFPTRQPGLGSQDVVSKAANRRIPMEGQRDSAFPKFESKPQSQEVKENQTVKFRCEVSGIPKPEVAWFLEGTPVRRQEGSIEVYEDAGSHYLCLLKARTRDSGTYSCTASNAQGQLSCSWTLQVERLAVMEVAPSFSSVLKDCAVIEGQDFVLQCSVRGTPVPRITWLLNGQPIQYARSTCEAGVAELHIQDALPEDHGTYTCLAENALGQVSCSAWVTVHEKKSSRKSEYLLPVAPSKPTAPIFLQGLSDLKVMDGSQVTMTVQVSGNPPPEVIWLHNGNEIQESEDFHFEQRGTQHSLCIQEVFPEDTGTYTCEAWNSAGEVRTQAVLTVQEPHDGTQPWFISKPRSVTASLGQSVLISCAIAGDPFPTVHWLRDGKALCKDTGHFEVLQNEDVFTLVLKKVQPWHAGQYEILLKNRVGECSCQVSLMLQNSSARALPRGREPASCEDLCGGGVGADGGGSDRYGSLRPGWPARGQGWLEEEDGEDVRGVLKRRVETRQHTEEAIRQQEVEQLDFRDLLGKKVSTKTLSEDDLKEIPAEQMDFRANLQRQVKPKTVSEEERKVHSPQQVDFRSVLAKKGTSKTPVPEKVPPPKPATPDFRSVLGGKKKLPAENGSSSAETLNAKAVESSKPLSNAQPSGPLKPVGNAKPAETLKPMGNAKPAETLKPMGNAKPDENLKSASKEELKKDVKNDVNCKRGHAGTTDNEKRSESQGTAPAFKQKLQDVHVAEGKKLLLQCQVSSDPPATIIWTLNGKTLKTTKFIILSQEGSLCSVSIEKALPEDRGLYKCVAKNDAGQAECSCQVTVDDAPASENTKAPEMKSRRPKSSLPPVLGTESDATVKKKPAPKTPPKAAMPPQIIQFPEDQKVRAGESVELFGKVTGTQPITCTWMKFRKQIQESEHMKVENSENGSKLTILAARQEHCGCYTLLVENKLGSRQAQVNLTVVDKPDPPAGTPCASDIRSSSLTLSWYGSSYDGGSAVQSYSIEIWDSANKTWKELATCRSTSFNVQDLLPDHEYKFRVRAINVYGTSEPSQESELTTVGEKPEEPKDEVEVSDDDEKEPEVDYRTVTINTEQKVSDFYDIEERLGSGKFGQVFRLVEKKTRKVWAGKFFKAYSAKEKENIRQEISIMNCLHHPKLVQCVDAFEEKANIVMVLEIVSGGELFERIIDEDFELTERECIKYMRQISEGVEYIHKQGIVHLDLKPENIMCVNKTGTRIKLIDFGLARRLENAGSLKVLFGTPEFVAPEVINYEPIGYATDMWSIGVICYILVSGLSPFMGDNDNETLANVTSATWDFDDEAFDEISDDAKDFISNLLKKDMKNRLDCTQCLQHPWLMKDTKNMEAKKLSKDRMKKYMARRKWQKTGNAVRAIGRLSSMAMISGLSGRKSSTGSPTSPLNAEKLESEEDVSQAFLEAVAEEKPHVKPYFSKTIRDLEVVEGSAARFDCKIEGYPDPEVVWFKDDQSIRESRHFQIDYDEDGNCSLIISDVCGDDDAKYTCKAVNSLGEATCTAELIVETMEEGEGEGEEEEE
Experimental: In the assay LanthaScreen™ Eu Kinase Binding Assay by Invitrogen Corporation (Carlsbad) the effect of invention of a compound on the phosphorylation is determined by measurement of fluorescence intensity emission ratio based on the binding and displacement of a proprietary, Alexa Fluor® 647-labeled, ATP-competitive kinase inhibitor scaffold (kinase tracer) to the kinase of interest as described above.
To the wells of an 384 well small volume plate (Greiner, Frickenhausen) are added (i) the compound under test in 5% DMSO/distilled water (5 μl), (ii) 5 μl of the kinase antibody mixture resulting in a final concentration 5 nM MYLK, 2 nM EU-Anti-GST antibody in 1× kinase buffer A. The reaction was started with addition of (iii) 5 μl resulting in a final concentration of 30 nM tracer 236. The assay plate was incubated at RT for 1 h and fluorescence intensitiy readings were collected using a TECAN M1000 at two wavelengthes of λex 340/λem 615 nm and λex 340/λem 665 nm with a delay time of 100 μs and an integration time of 200 μs after 60 minutes. The emission ratio was calculated by division of the acceptor/tracer emission ([…]) by the antibody/donor emission ([…]). The inhibitor concentration was plotted versus the emission ratio to determine the IC50 using XLFit 5.0 (IDBS, Guildford) to fit to a sigmoidal dose response curve with a variable slope.

[1] = 5 nM LRRK2, 10 nM tracer 236, RT 1 h, read-out: LRRK2 Activites: IC50
[2] = 5 nM MYLK, 30 nM tracer 236, RT 1 h, read-out: MYLK Activites: IC50
[3] = LRRK2 Activites: IC50, 5 nM LRRK2, 10 nM tracer 236, RT 1 h

SMILES	pKi (SYK kinase)	pIC50 (LRRK2; [1])	pIC50 (MYLK; [2])	pIC50 (LRRK2; [3])	pIC50 (MYLK)
COc1ccc2nc(Nc3ccccc3)c3n[nH]cc3c2c1 [Example #13, (8-Methoxy-2H-pyrazolo[3,4-c]quinolin-4-yl)-phenyl-amine]	7.00 to 8.00	6.00 to 7.00	> 5.30	–	–
Brc1ccc2nc(Nc3ccc4[nH]cnc4c3)c3n[nH]cc3c2c1 [Example #34, (1H-Benzoimidazol-5-yl)-(8-bromo-2H-pyrazolo[3,4-c]quinolin-4-yl)-amine]	7.00 to 8.00	6.00 to 7.00	> 5.30	–	–
COc1ccc2nc(Nc3ccc4[nH]ncc4c3)c3n[nH]cc3c2c1 [Example #38, (1H-Indazol-5-yl)-(8-methoxy-2H-pyrazolo[3,4-c]quinolin-4-yl)-amine]	7.00 to 8.00	6.00 to 7.00	> 5.30	–	–
COc1ccc2nc(Nc3ccc4[nH]cnc4c3)c3n[nH]cc3c2c1 [Example #39, (1H-Benzoimidazol-5-yl)-(8-methoxy-2H-pyrazolo[3,4-c]quinolin-4-yl)-amine]	7.00 to 8.00	6.00 to 7.00	> 5.30	–	–
COc1ccc2nc(Nc3ccc(N4CCN(C)CC4)cc3)c3n[nH]cc3c2c1 [Example #42, (8-Methoxy-2H-pyrazolo[3,4-c]quinolin-4-yl)-[4-(4-methyl-piperazin-1-yl)-phenyl]-amine]	7.00 to 8.00	7.00 to 8.00	> 5.30	–	–
CN1CCN(c2ccc(Nc3nc4ccc(Br)cc4c4c[nH]nc34)cc2)CC1 [Example #43, (8-Bromo-2H-pyrazolo[3,4-c]quinolin-4-yl)-[4-(4-methyl-piperazin-1-yl)-phenyl]-amine]	> 8.00	6.00 to 7.00	> 5.30	–	–
COc1ccc2nc(Nc3cccc(N)c3)c3n[nH]cc3c2c1 [Example #44, N-(8-Methoxy-2H-pyrazolo[3,4-c]quinolin-4-yl)-benzene-1,3-diamine]	7.00 to 8.00	7.00 to 8.00	> 5.30	–	–
COc1ccc2nc(Nc3cccc(C(=N)N)c3)c3n[nH]cc3c2c1 [Example #49, 3-(8-Methoxy-2H-pyrazolo[3,4-c]quinolin-4-ylamino)-benzamidine]	6.00 to 7.00	6.00 to 7.00	> 5.30	–	–
COc1ccc2nc(Nc3cccc(C(N)=O)c3)c3n[nH]cc3c2c1 [Example #52, 3-(8-Methoxy-2H-pyrazolo[3,4-c]quinolin-4-ylamino)-benzamide]	6.00 to 7.00	6.00 to 7.00	> 5.30	–	–
COc1ccc2nc(Nc3ccc(OC)c(OC)c3)c3n[nH]cc3c2c1 [Example #53, (3,4-Dimethoxy-phenyl)-(8-methoxy-2H-pyrazolo[3,4-c]quinolin-4-yl)-amine]	7.00 to 8.00	6.00 to 7.00	> 5.30	–	–
COc1ccc2nc(Nc3ccc4nc(C)[nH]c4c3)c3n[nH]cc3c2c1 [Example #55, (8-Methoxy-2H-pyrazolo[3,4-c]quinolin-4-yl)-(2-methyl-3H-benzoimidazol-5-yl)-amine]	7.00 to 8.00	6.00 to 7.00	> 5.30	–	–
c1cnc2c(c1)nc(Nc1ccc3[nH]ncc3c1)c1n[nH]cc12 [Example #56, (1H-Indazol-5-yl)-(2H-2,3,5,9-tetraaza-cyclopenta[a]naphthalen-4-yl)-amine]	> 8.00	7.00 to 8.00	> 5.30	–	–
COc1ccc2nc(Nc3ccc(C(=O)O)cc3)c3n[nH]cc3c2c1 [Example #57, 4-(8-Methoxy-2H-pyrazolo[3,4-c]quinolin-4-ylamino)-benzoic-acid]	7.00 to 8.00	6.00 to 7.00	> 5.30	–	–
COc1ccc2nc(Nc3cc(OC)c(OC)c(OC)c3)c3n[nH]cc3c2c1 [Example #67, (8-Methoxy-2H-pyrazolo[3,4-c]quinolin-4-yl)-(3,4,5-trimethoxy-phenyl)-amine]	> 8.00	6.00 to 7.00	> 5.30	–	–
COc1ccc2nc(Nc3ccc4[nH]c(=O)[nH]c4c3)c3n[nH]cc3c2c1 [Example #71, 5-(8-Methoxy-2H-pyrazolo[3,4-c]quinolin-4-ylamino)-1,3-dihydro-benzoimidazol-2-one]	7.00 to 8.00	6.00 to 7.00	> 5.30	–	–
COc1ccc2nc(Nc3ccc(CN)cc3)c3[nH]ncc3c2c1 [Example #73, (4-Aminomethyl-phenyl)-(8-methoxy-3H-pyrazolo[3,4-c]quinolin-4-yl)-amine]	7.00 to 8.00	6.00 to 7.00	> 5.30	–	–
CN(C)c1ccc(Nc2nc3ccc(Br)cc3c3c[nH]nc23)cc1 [Example #84, N-(8-Bromo-2H-pyrazolo[3,4-c]quinolin-4-yl)-N′,N′-dimethyl-benzene-1,4-diamine]	7.00 to 8.00	6.00 to 7.00	> 5.30	–	–
COc1ccc2nc(Nc3ccc(C4=NCCN4)cc3)c3n[nH]cc3c2c1 [Example #86, [4-(4,5-Dihydro-1H-imidazol-2-yl)-phenyl]-(8-methoxy-2H-pyrazolo[3,4-c]quinolin-4-yl)-amine]	7.00 to 8.00	6.00 to 7.00	> 5.30	–	–
COc1ccc2nc(Nc3ccc(N4CCOCC4=O)cc3)c3n[nH]cc3c2c1 [Example #87, 4-[4-(8-Methoxy-2H-pyrazolo[3,4-c]quinolin-4-ylamino)-phenyl]-morpholin-3-one]	6.00 to 7.00	7.00 to 8.00	> 5.30	–	–
COc1ccc2nc(Nc3ccc(-c4nnn[nH]4)cc3)c3[nH]ncc3c2c1 [Example #98, (8-Methoxy-3H-pyrazolo[3,4-c]quinolin-4-yl)-[4-(1H-tetrazol-5-yl)-phenyl]-amine]	6.00 to 7.00	6.00 to 7.00	> 5.30	–	–
COc1ccc2nc(Nc3ccc(C4CCN(C)CC4)cc3)c3n[nH]cc3c2c1 [Example #102, (8-Methoxy-2H-pyrazolo[3,4-c]quinolin-4-yl)-[4-(1-methyl-piperidin-4-yl)-phenyl]-amine]	7.00 to 8.00	6.00 to 7.00	> 5.30	–	–
COc1ccc2nc(Nc3ccc(CC(N)=O)cc3)c3[nH]ncc3c2c1 [Example #112, 2-[4-(8-Methoxy-3H-pyrazolo[3,4-c]quinolin-4-ylamino)-phenyl]-acetamide]	7.00 to 8.00	6.00 to 7.00	> 5.30	–	–
COc1ccc2nc(Nc3ccc(OC)c(O)c3)c3n[nH]cc3c2c1 [Example #118, 2-Methoxy-5-(8-methoxy-2H-pyrazolo[3,4-c]quinolin-4-ylamino)-phenol]	> 8.00	7.00 to 8.00	> 5.30	–	–
COc1ccc2nc(Nc3cccc(NC(C)=O)c3)c3[nH]ncc3c2c1 [Example #120, N-[3-(8-Methoxy-3H-pyrazolo[3,4-c]quinolin-4-ylamino)-phenyl]-acetamide]	7.00 to 8.00	7.00 to 8.00	> 5.30	–	–
COc1ccc2nc(Nc3ccc(C(=O)N4CCC(N5CCN(C)CC5)CC4)cc3OC)c3n[nH]cc3c2c1 [Example #295, (3-methoxy-4-((8-methoxy-2H-pyrazolo[3,4-c]quinolin-4-yl)amino)phenyl)(4-(4-methylpiperazin-1-yl)piperidin-1-yl)methanone]	–	7.00 to 8.00	> 5.30	–	–
COc1ccc2nc(Nc3ccc(C(=O)N4CCCN(C)CC4)cc3)c3n[nH]cc3c2c1 [Example #304, (4-((8-methoxy-2H-pyrazolo[3,4-c]quinolin-4-yl)amino)phenyl)(4-methyl-1,4-diazepan-1-yl)methanone]	–	6.00 to 7.00	> 5.30	–	–
COc1ccc2nc(Nc3ccc(C(=O)N4CCC(=O)CC4)cc3)c3n[nH]cc3c2c1 [Example #305, 1-(4-((8-methoxy-2H-pyrazolo[3,4-c]quinolin-4-yl)amino)benzoyl)piperidin-4-one]	–	–	–	7.00 to 8.00	> 5.30
COc1ccc2nc(Nc3ccc(C(=O)N4CCC5(CC4)OCCO5)cc3)c3n[nH]cc3c2c1 [Example #306, (4-((8-methoxy-2H-pyrazolo[3,4-c]quinolin-4-yl)amino)phenyl)(1,4-dioxa-8-azaspiro[4.5]decan-8-yl)methanone]	–	–	–	7.00 to 8.00	> 5.30
COc1ccc2nc(Nc3ccc(C(=O)N4CCC(N(C)C)C4)cc3)c3n[nH]cc3c2c1 (stereo not drawn) [Example #307, (3-(dimethylamino)pyrrolidin-1-yl)(4-((8-methoxy-2H-pyrazolo[3,4-c]quinolin-4-yl)amino)phenyl)methanone]	–	6.00 to 7.00	> 5.30	–	–
COc1cccc2nc(Nc3ccc4c(c3)CN(C)C4)c3[nH]ncc3c12 [Example #352, 9-methoxy-N-(2-methylisoindolin-5-yl)-3H-pyrazolo[3,4-c]quinolin-4-amine]	–	7.00 to 8.00	> 5.30	–	–
